Drawing on ChEMBL document CHEMBL1136622, “Discovery of the first antibacterial small molecule inhibitors of MurB” (Bioorg Med Chem Lett, 2003), this text covers IC50 and MIC for 8 compounds.

Assay [1] is described as follows: In vitro inhibitory concentration required against Mur B enzyme was determined. Set-up: species or system Staphylococcus aureus.
Another assay deals with Staphylococcus aureus. In words: Antibacterial activity against Staphylococcus aureus A9537. The class given is functional.

Converted amounts (≈) assume the structure as drawn. Some results are limits rather than exact numbers.

In general, IC50 refers to the midpoint of a concentration-inhibition curve. On to `CCCC[C@@H](C(=O)O)n1c(-c2cccc(Oc3ccc(C(C)(C)C)cc3)c2)cnc1O`, for which the IC50 in assay [1] was over 118 µM.

As to `CCCC[C@@H](C(=O)O)N1C(=O)C(CC(=O)NCCc2ccccc2Cl)SC1c1cccc(Oc2ccc(C(C)(C)C)cc2)c1` (some centres not stated), in assay [1], the IC50 was determined as 12 µM.

Broadly, the MIC is the lowest concentration that inhibits growth of the organism. The low end stands for inhibition by little substance, the high end for a need for much substance. In the case of `C=CCn1cc(-c2cccc(Oc3ccc(C(C)(C)C)cc3)c2)n([C@@H](CCCC)C(=O)O)c1=O`, in assay [1], it took 40 µM to reach half-maximal inhibition (IC50). Also, the minimal inhibitory concentration (MIC) against Staphylococcus aureus worked out at 4 µg/mL (≈ 8.65 µM).

`CCCC[C@@H](C(=O)O)n1c(-c2cccc(Oc3ccc(C(C)(C)C)cc3)c2)cn(C)c1=O` came in with a concentration for half-maximal inhibition (IC50) in assay [1] of over 115 µM.

As for `CCCC[C@@H](C(=O)O)n1c(-c2cccc(Oc3ccc(C(C)(C)C)cc3)c2)cn(Cc2ccccc2)c1=O`, in assay [1], the 50% inhibitory concentration (IC50) turned out to be 16 µM. Besides, the minimal inhibitory concentration (MIC) in the assay on Staphylococcus aureus came to 2 µg/mL (≈ 3.9 µM).

In assay [1], `CCCC[C@@H](C(=O)OC)n1c(-c2cccc(Oc3ccc(C(C)(C)C)cc3)c2)cn(CC(=O)O)c1=O` returned an IC50 of over 101 µM.

In assay [1], `CCCC[C@@H](C(=O)O)n1c(-c2cccc(Oc3ccc(C(C)(C)C)cc3)c2)cn(CC(=O)NCCc2ccccc2Cl)c1=O` displayed an IC50 of 25 µM. In addition, it took 4 µg/mL (≈ 6.47 µM) to inhibit growth in the assay with Staphylococcus aureus (MIC).

In assay [1], `CCCC[C@@H](C(=O)O)n1c(-c2cccc(Oc3ccc(C(C)(C)C)cc3)c2)cn(CC(=O)NCc2ccc(Cl)c(Cl)c2)c1=O` showed an IC50 of 15 µM. In the assay with Staphylococcus aureus, this compound showed a minimum inhibitory concentration (MIC) of 4 µg/mL (≈ 6.26 µM).
